# Patent publication US12063929B2, “3′-alkynyl abscisic acid derivatives as ABA antagonists” (University of Saskatchewan, priority 2018, dated 2024)
# Experiments:
# Format in all cases: in vivo
# Lentil (CDC Maxim) = Lentil (CDC Maxim) seed germination assay; details: for antagonist activity, lentil germination: 10 uM versus 10 uM ABA; for antagonist activity, lentil germination / agonist activity, lentil germination: data not shown; for agonist activity, lentil germination: 10 uM; for lentil seed germination, antagonism of ABA: 10 μM ABA plus 10 μM compound (FIG. 6C)
# Protocol: 40 seeds were counted for each 100×15 mm petri dishes. Each petri dish contained two filter papers and 10 mL of test solutions. Then, they were wrapped with aluminium foil to cut off light. Wrapped plates were kept on lab bench at room temperature. Germinated seeds were counted everyday until one treatment reaches 100% germination (two days). Only light exposure was during plate counting. […]
# All seeds from this experiment have been rinsed first with tap water and then with dH2O, frozen in liquid nitrogen and stored at −80° C. freezer.
# Hard Red Spring wheat = Hard Red Spring wheat seedling growth (root and shoot length); details: 10 μM ABA, 72 h
# Protocol: For each treatment 3 replicates of 10 seeds were plated into petri dishes lined with two filter papers and 10 mL of test solution. The covered dishes were stored at room temperature in the dark. At 72 hours, germinated seeds were scored for root length and shoot length. The following dosages were used when studying the effect of the exemplary ABA analogues of the application on wheat shoot and root growth: control 1% DMSO. 10 μM ABA, 10 μM 1019, 100 μM exemplary compound 1019, 10 μM exemplary compound 1019 plus 10 μM ABA […] and 100 μM exemplary compound 1019 plus 10 μM ABA […].
# [1] = test system: Canola seed (Nutrien PV200); experiment: Canola seed germination assay; details: 10 μM ABA, 8 day study (FIG. 10)
# Protocol: For each treatment 6 replicates of 40 seeds were plated into petri dishes lined with two filter papers and 10 mL of test solution. The covered dishes were stored at room temperature in the dark. Germinated seeds were counted every 2 days for 8 days. The following dosages were used when studying the effect of exemplary compounds on canola germination: control 1% DMSO. 10 μM ABA, 100 μM 1019, and 100 μM 1019 plus 10 μM ABA.
# [2] = 100 μM compound alone, compared to control (FIG. 6A)
# [3] = 100 μM compound plus 10 μM ABA (FIG. 6B)
# [4] = 100 μM compound, in the presence of 10 μM ABA (FIG. 5)
structure (smiles),measurement,setting,value
"CCc1ccc(C#CC2=C(C)[C@](O)(/C=C/C(C)=C\C(=O)O)C(C)(C)CC2=O)cc1 [Compound 1025, (2Z,4E)-5-((S)-3-((4-Ethylphenyl)ethynyl)-1-hydroxy-2,6,6-trimethyl-4-oxocyclohex-2-en-1-yl)-3-methylpenta-2,4-dienoic acid]",lentil seed germination,Lentil (CDC Maxim); compound at 1 uM,most highly promoted
"CC1=C(C#C/C(C)=C\CO)C(=O)CC(C)(C)[C@@]1(O)/C=C/C(C)=C\C(=O)O [Compound 1063, (2Z,4E)-5-((S)-1-hydroxy-3-((Z)-5-hydroxy-3-methylpent-3-en-1-yn-1-yl)-2,6,6-trimethyl-4-oxocyclohex-2-en-1-yl)-3-methylpenta-2,4-dienoic acid]","antagonist activity, lentil germination",Lentil (CDC Maxim),weak antagonist activity
same,"agonist activity, lentil germination",Lentil (CDC Maxim),no agonist activity
"CC1=C(C#CC2CCCCC2)C(=O)CC(C)(C)[C@@]1(O)/C=C/C(C)=C\C(=O)O [Compound 1100, (2Z,4E)-5-((S)-3-(cyclohexylethynyl)-1-hydroxy-2,6,6-trimethyl-4-oxocyclohex-2-en-1-yl)-3-methylpenta-2,4-dienoic acid]","lentil seed germination, antagonism of ABA",Lentil (CDC Maxim),effective antagonists
same,lentil seed germination,Lentil (CDC Maxim); [2],no effect
same,lentil seed germination,Lentil (CDC Maxim); [3],overcame the effect
"CC1=C(/C=C/c2ccccc2)C(=O)CC(C)(C)[C@@]1(O)/C=C/C(C)=C\C(=O)O [Compound 1090, (2Z,4E)-5-((S)-1-hydroxy-2,6,6-trimethyl-4-oxo-3-((E)-styryl)cyclohex-2-en-1-yl)-3-methylpenta-2,4-dienoic acid]",lentil seed germination,Lentil (CDC Maxim); [4],promoted
"CC1=C(c2ccccc2)C(=O)CC(C)(C)[C@@]1(O)/C=C/C(C)=C\C(=O)O [Compound 1080, (2Z,4E)-5-((S)-3-hydroxy-2,4,4-trimethyl-6-oxo-3,4,5,6-tetrahydro-′[1,1′-biphenyl]-3-yl)-3-methylpenta-2,4-dienoic acid]",lentil seed germination,Lentil (CDC Maxim); [4],weakly promoted
"CC1=CC(=O)CC(C)(C)[C@@]1(O)/C=C/C(C)=C\C(=O)O [ABA, (2Z,4E)-5-[(1S)-1-hydroxy-2,6,6-trimethyl-4-oxocyclohex-2-en-1-yl]-3-methylpenta-2,4-dienoic acid, reference compound]",shoot growth,Hard Red Spring wheat,inhibited
same,lentil seed germination,"Lentil (CDC Maxim); 10 uM ABA alone, day one (FIG. 3A)",completely inhibited
same,canola seed germination,[1],inhibited seed germination
"CCC(O)(C#CC1=C(C)[C@](O)(/C=C/C(C)=C\C(=O)O)C(C)(C)CC1=O)CC [Compound 1059, (2Z,4E)-5-((S)-3-(3-ethyl-3-hydroxypent-1-yn-1-yl)-1-hydroxy-2,6,6-trimethyl-4-oxocyclohex-2-en-1-yl)-3-methylpenta-2,4-dienoic acid]","antagonist activity, lentil germination",Lentil (CDC Maxim),weak antagonist activity
same,"agonist activity, lentil germination",Lentil (CDC Maxim),no agonist activity
"CC1=C(C#Cc2ccc(O)cc2)C(=O)CC(C)(C)[C@@]1(O)/C=C/C(C)=C\C(=O)O [Compound 1091, (2Z,4E)-5-((S)-1-hydroxy-3-((4-hydroxyphenyl)ethynyl)-2,6,6-trimethyl-4-oxocyclohex-2-en-1-yl)-3-methylpenta-2,4-dienoic acid]","lentil seed germination, antagonism of ABA",Lentil (CDC Maxim),effective antagonists
same,lentil seed germination,Lentil (CDC Maxim); [2],no effect
same,lentil seed germination,Lentil (CDC Maxim); [3],overcame the effect
